Data set [1] relates to A549. Kind of data set: Phototoxicity in human A549 cells assessed as cell viability at upto 20 uM pre-irradiated with 808nm laser 1.5 W/cm2 for 10 mins and measured after 12 hrs by MTT assay relative to control. Type of data set: functional. Particulars: time 730 min, 12.17 h, up to 20 µM. Background: Tetrazolium assays rely on reduction of a dye to a coloured formazan, in cell work by metabolically active cells.

The subject of data set [2] is A549. Kind of data set: Phototoxicity in human A549 cells assessed as cell viability at 10 uM pre-irradiated with 808nm laser 1.5 W/cm2 for 10 mins and measured after 12 hrs by MTT assay relative to control. Type of data set: functional. Particulars: A549, light or radiation study, 12.17 h, time 730 min, read-out: Activity.
Data set [3] has as its system A549. Kind of data set: Phototoxicity in human A549 cells assessed as cell viability at 20 uM pre-irradiated with 808nm laser 1.5 W/cm2 for 10 mins and measured after 12 hrs by MTT assay relative to control. Type of data set: functional. Conditions: A549, light or radiation study, 12.17 h, time 730 min, read-out: Activity.
For data set [4], the system named is A549. As to the kind of experiment: Induction of apoptosis in human A549 cells under light irradiation with 808nm laser 1.5 W/cm2 for 10 mins by annexin V-FITC/propidium iodide staining based flow cytometry. In kind it is functional, cell-based.
For data set [5], the system named is A549. As to the kind of experiment: Phototoxicity in human A549 cells assessed as reduction in cell viability at upto 20 uM preincubated for 1 hr followed by light irradiation with 808nm laser 1.5 W/cm2 for 10 mins and measured after 4 hrs by Live/Dead dye staining assay. In kind it is functional, cell-based. Particulars: time 310.0 min.
Data set [6] deals with A549. As to the kind of experiment: Induction of singlet oxygen production in human A549 cells at 10 uM preincubated for 65 mins followed by light irradiation with 808nm laser 1.5 W/cm2 for 10 mins by DCF-DA staining based confocal microscopy analysis. Type of data set: functional, cell-based. Conditions: time 75.0 min.
Data set [7] relates to A549. As to the kind of experiment: Antitumor activity against human A549 cells xenografted in BALB/c mouse model assessed as decrease in fluorescence signal at 300 uM, iv measured upto 120 mins. Type of data set: functional, organism-based.
The subject of data set [8] is A549. As to the kind of experiment: Cytotoxicity against human A549 cells assessed as survival rate measured after 12 hrs relative to control. In kind it is functional.
The subject of data set [9] is A549. Kind of data set: Antimigratory activity against human A549 cells measured upto 18 hrs by wound healing assay. In kind it is functional, cell-based.
Data set [10] deals with A549. As to the kind of experiment: Photosensitization activity against human A549 cells overexpressing ALP assessed as increase in fluorescence intensity at 10 uM pretreated with Na3VO4 for 1 hr followed by compound addition and measured upto 60 mins by confocal fluorescent imaging based analysis. In kind it is functional, cell-based. Particulars: time <= 60.0 […].
Data set [11] has as its system A549. As to the kind of experiment: Antitumor activity against human A549 cells xenografted in BALB/c mouse model assessed as reduction in fluorescence in lung at 300 uM, iv measured after 120 mins. In kind it is functional, organism-based. (A xenograft is tissue or cells of one species grown in another, often human tumour cells in immunodeficient mice.)
Data set [12] is described as follows: Toxicity in BALB/c mouse assessed as effect on tumor at 300 uM, iv pre-irradiated with 808nm laser 1.5 W/cm2 for 10 mins and measured after 14 days by H and E staining based analysis. In kind it is organism-based. Conditions: in vivo, 336 h, time 14 day.
For a further data set, the system named is L02. As to the kind of experiment: Photosensitization activity against human L02 cells overexpressing ALP assessed as increase in fluorescence intensity at 10 uM pretreated with MgCl2 for 1 hr followed by compound addition by confocal fluorescent imaging based analysis. In kind it is functional, cell-based.
A short description of data set [13]: Toxicity in BALB/c mouse assessed as effect on lung at 300 uM, iv pre-irradiated with 808nm laser 1.5 W/cm2 for 10 mins and measured after 14 days by H and E staining based analysis. Type of data set: organism-based. Particulars: in vivo, 336 h, time 14 day.
Data set [14] concerns HeLa. As to the kind of experiment: Phototoxicity in human HeLa cells assessed as decrease in survival rate at upto 10 uM pre-irradiated with 808nm laser 1.5 W/cm2 for 10 mins and measured after 12 hrs by MTT assay. Type of data set: functional, cell-based. Conditions: time 730.0 min.
Data set [15] is described as follows: Toxicity in BALB/c mouse assessed as effect on body weight loss at 300 uM, iv pre-irradiated with 808nm laser 1.5 W/cm2 for 10 mins and measured after 14 days by H and E staining based analysis. Particulars: in vivo, 336 h, time 14 day. In kind it is organism-based.
Data set [16] relates to A549. As to the kind of experiment: Phototoxicity in human A549 cells assessed as decrease in survival rate at 10 uM pre-irradiated with 808nm laser 1.5 W/cm2 for 10 mins and measured after 12 hrs by MTT assay relative to control. Type of data set: functional. Conditions: A549, light or radiation study, 12.17 h, time 730 min, read-out: Survival.
For data set [17], the system named is A549. Kind of data set: Antitumor activity against human A549 cells xenografted in BALB/c mouse model assessed as inhibition of tumor growth at 300 uM, iv pre-irradiated with 808nm laser 1.5 W/cm2 for 10 mins and measured daily for 14 days. Conditions: time 14.0 day. Type of data set: functional, organism-based.
Data set [18] relates to A549. As to the kind of experiment: Induction of singlet oxygen production in human A549 cells assessed as increase in fluorescent signal at 10 uM preincubated for 65 mins followed by light irradiation with 808nm laser 1.5 W/cm2 for 10 mins in presence of Na3VO4 by DCF-DA staining based confocal microscopy analysis. Type of data set: functional, cell-based. Particulars: time 75.0 min.

Data set [19] concerns A549. As to the kind of experiment: Photosensitization activity against human A549 cells overexpressing ALP assessed as increase in fluorescence intensity at 10 uM measured upto 60 mins by confocal fluorescent imaging based analysis. Type of data set: functional, cell-based.
In data set [20] the test system is HeLa. Kind of data set: Cytotoxicity against human HeLa cells assessed as survival rate measured after 12 hrs relative to control. In kind it is functional.
For data set [21], the system named is A549. Kind of data set: Phototoxicity in human A549 cells assessed as decrease in survival rate at upto 10 uM pre-irradiated with 808nm laser 1.5 W/cm2 for 10 mins and measured after 12 hrs by MTT assay. In kind it is functional, cell-based. Conditions: time 730.0 min.
The nature of data set [22]: Toxicity in BALB/c mouse assessed as effect on kidney at 300 uM, iv pre-irradiated with 808nm laser 1.5 W/cm2 for 10 mins and measured after 14 days by H and E staining based analysis. In kind it is organism-based. Conditions: in vivo, 336 h, time 14 day.
Data set [23] can be described thus: Cytotoxicity against human L02 cells assessed as survival rate measured after 12 hrs by MTT assay relative to control. In kind it is toxicity, cell-based. Conditions: read-out: Survival.
Data set [24] deals with A549. Kind of data set: Phototoxicity in human A549 cells assessed as reduction in cell viability at 10 uM preincubated for 1 hr followed by light irradiation with 808nm laser 1.5 W/cm2 for 10 mins and measured after 4 hrs in presence of Na3VO4 by Live/Dead dye staining assay. Particulars: time 310.0 min. Type of data set: functional, cell-based.
For data set [25], the system named is A549. As to the kind of experiment: Antitumor activity against human A549 cells xenografted in BALB/c mouse model assessed as reduction in fluorescence in spleen at 300 uM, iv measured after 120 mins. In kind it is functional, organism-based.
Data set [26] has as its system HeLa. As to the kind of experiment: Phototoxicity in human HeLa cells assessed as decrease in survival rate at 10 uM pre-irradiated with 808nm laser 1.5 W/cm2 for 10 mins and measured after 12 hrs by MTT assay relative to control. Type of data set: functional. Conditions: light or radiation study, 12.17 h, time 730 min, read-out: Survival.
Data set [27] relates to A549. Kind of data set: Antitumor activity against human A549 cells xenografted in BALB/c mouse model assessed as reduction in fluorescence in liver at 300 uM, iv measured after 120 mins. In kind it is functional, organism-based.
Data set [28] is described as follows: Toxicity in BALB/c mouse assessed as effect on liver at 300 uM, iv pre-irradiated with 808nm laser 1.5 W/cm2 for 10 mins and measured after 14 days by H and E staining based analysis. Conditions: in vivo, 336 h, time 14 day. In kind it is organism-based.
For data set [29], the system named is A549. Kind of data set: Antitumor activity against human A549 cells xenografted in BALB/c mouse model assessed as reduction in fluorescence in heart at 300 uM, iv measured after 120 mins. Type of data set: functional, organism-based.
Data set [30] can be described thus: Toxicity in BALB/c mouse assessed as effect on heart at 300 uM, iv pre-irradiated with 808nm laser 1.5 W/cm2 for 10 mins and measured after 14 days by H and E staining based analysis. In kind it is organism-based. Conditions: in vivo, 336 h, time 14 day.
Data set [31] can be described thus: Toxicity in BALB/c mouse assessed as effect on spleen at 300 uM, iv pre-irradiated with 808nm laser 1.5 W/cm2 for 10 mins and measured after 14 days by H and E staining based analysis. In kind it is organism-based. Particulars: in vivo, 336 h, time 14 day.
Data set [32] in a line: Induction of singlet oxygen production of the compound assessed as decrease in DPBF absorbance under laser irradiation with 808nm laser 1.5 W/cm2 for upto 15 mins in presence of alkaline phosphatase. In kind it is physicochemical. Conditions: isolated protein, 0.25 h.
Data set [33] has as its system A549. As to the kind of experiment: Antitumor activity against human A549 cells xenografted in BALB/c mouse model assessed as reduction in fluorescence in kidney at 300 uM, iv measured after 120 mins. In kind it is functional, organism-based.

Here are results for five compounds from ChEMBL document CHEMBL5550207, “Alkaline Phosphatase Activated Near-Infrared Frequency Upconversion Photosensitizers for Tumor Photodynamic Therapy” (J Med Chem, 2024).

The source made the active and inactive calls. No cut-off for these calls is given here.

With `CC[N+]1=C(/C=C/C2=C3Oc4cc(O)c(Br)cc4C=C3CCC2)C(C)(C)c2ccccc21.[I-]`, the Activity with A549 [1] was >85%.
For `CC[N+]1=C(/C=C/C2=C3Oc4cc(O)ccc4C=C3CCC2)C(C)(C)c2ccccc21.[I-]`, the Activity with A549 [1] is given as >85%.
The same measure, in the same setting: under `CC[N+]1=C(/C=C/C2=C3Oc4cc(O)ccc4C=C3CCC2)C(C)(C)c2cc(Br)ccc21.[I-]` stands >85%.
Turning to `CC[N+]1=C(/C=C/C2=C3Oc4cc(O)c(Br)cc4C=C3CCC2)C(C)(C)c2cc(Br)ccc21`, in the data set on A549 [2], the viability at 10 µM worked out at 40%. The viability at 20 µM in the data set on A549 [3] is < 20%. Also, the result with A549 [4], in the data set on A549 [5] and in the data set on A549 [6] was Active.
In the case of `CC[N+]1=C(/C=C/C2=C3Oc4cc(OP(=O)(O)O)c(Br)cc4C=C3CCC2)C(C)(C)c2cc(Br)ccc21.[I-]`, the result with A549 [7], in the data set with A549 [9], with A549 [10] and with A549 [18] was inactive. In addition, the Survival with A549 [8] and in the data set on HeLa [20] was >85% each time. Also, the outcome with A549 [11], in the data set on L02, with HeLa [14], in the data set with A549 [4], in the data set on A549 [19] and with A549 [21] was Active. Besides, the outcome in the data set on A549 [24], with A549 [25], in the data set with A549 [27], in the data set on A549 [6], with A549 [29] and in the data set with A549 [33] was Active. Also, the Activity result in data set [12], in data set [13], in [15], in data set [22], in [28] and in [30] was “Non-Toxic” each time. For the same compound, the figures for the Activity result in data set [31] and in data set [32] were “Non-Toxic” and “Active”, respectively. The viability at 10 µM in the data set with A549 [16] and with HeLa [26] was < 40% each time. Moreover, the AC30 entry with A549 [17] was “Active”. Besides, in [23], the viability at 12 h was > 85%.
